The values below are quoted from earlier work in patent publication US20050009782A1, “Antiviral charged polymers that exhibit resistance to lysosomal degradation during kidney filtration and renal passage, compositions and methods of use thereof” (priority 2003, published 2005).

The test system of data set [1] is HIV. The conditions noted are these: for In vitro activity: listed virus = activity demonstrated; for inhibition of HIV replication: in vitro; for inhibition of HIV replication / inhibition of HIV in vitro: reported in literature.
The subject of another data set is HSV-1. The conditions noted are these: listed virus = activity demonstrated.
The next data set deals with CMV. The conditions noted are these: for In vitro activity: listed virus = activity demonstrated; for inhibition of cytomegaloviruses in vitro: reported in literature.
A further data set concerns measles. The conditions noted are these: listed virus = activity demonstrated.
The next data set deals with mumps. The conditions noted are these: listed virus = activity demonstrated.
The subject of another data set is Chlamydia. The conditions noted are these: listed organism = activity demonstrated.
For a further data set, the system named is HSV. The conditions noted are these: for inhibition of herpes simplex viruses in vitro: reported in literature; for In vitro activity: listed virus = activity demonstrated.
A further data set has as its system paramyxoviruses. The conditions noted are these: reported in literature.
A further data set relates to semlikiviruses. The conditions noted are these: reported in literature.
The subject of data set [2] is HIV.
For another data set, the system named is HHV-7. The conditions noted are these: listed virus = activity demonstrated.
Another data set relates to Denge virus. The conditions noted are these: listed virus = activity demonstrated.
In the next data set the test system is MLV. The conditions noted are these: listed virus = activity demonstrated.
Another data set deals with RLV. The conditions noted are these: listed virus = activity demonstrated.
For a further data set, the system named is HIV-1. The conditions noted are these: listed virus = activity demonstrated.
Another data set concerns HSV-2. The conditions noted are these: listed virus = activity demonstrated.

For the molecule Prunellin, in the data set with HIV [1], the In vitro activity entry is “HIV”.
On to “Achranthese bidentata polysaccharide sulfate”, for which, in the data set on HSV-1, the In vitro activity entry is on record as “HSV-1”.
Take Calcium spirulan: the In vitro activity result was “HIV” in the data set on HIV [1]; “HSV-1” with HSV-1; “CMV” in the data set on CMV; “measles” in the data set with measles; “mumps” in the data set on mumps.
For the molecule Fucoidin, in the data set with HIV [1], the “inhibition of HIV replication” value is listed as “inhibit HIV replication” and the In vitro activity result is “HIV”. In addition, the In vitro activity result in the data set with Chlamydia is “Chlamydia”.
With “2-acetamido-2-deoxy-3-O-sulfo(14)-beta-D-glycopyranan”, the In vitro activity entry in the data set on HIV [1] is recorded as “HIV”.
For Pentosan polysulfate, in the data set with HIV [1], the “inhibition of HIV replication” value is recorded as “inhibit HIV replication”, the In vitro activity result is reported as “HIV” and the “inhibition of HIV in vitro” value is reported as “potent inhibitors”. Besides, the “inhibition of cytomegaloviruses in vitro” value in the data set on CMV is given as “potent inhibitors”. In addition, in the data set with HSV, the “inhibition of herpes simplex viruses in vitro” value is listed as “potent inhibitors”. In addition, the In vitro activity result in the data set on Chlamydia is on record as “Chlamydia”. The “inhibition of paramyxoviruses in vitro” value in the data set on paramyxoviruses is listed as “potent inhibitors”. Besides, the “inhibition of influenza viruses in vitro” value in the data set with influenza viruses was “potent inhibitors”. For the same molecule, the “inhibition of semlikiviruses in vitro” value in the data set on semlikiviruses is reported as “potent inhibitors”.
With “3′ sulfogalactosylceramide [Sulfatide (3′ sulfogalactosylceramide)]”, the In vitro activity result in the data set with HIV [1] is “HIV”.
Consider dextrin sulfate, for which the “inhibition of HIV replication” value in the data set on HIV [1] is “inhibit HIV replication”.
Take Sulfate dodecyl laminarapentaoside: in the data set with HIV [1], the In vitro activity entry is given as “HIV”.
As for sulfated cyclodextrins, the “inhibition of HIV replication” value with HIV [1] is “inhibit HIV replication”.
Take Lentinan sulfate: in the data set on HIV [1], the “inhibition of HIV replication” value is recorded as “inhibit HIV replication” and the In vitro activity entry is given as “HIV”.
lambda-carrageenan: in the data set on HIV [1], the “inhibition of HIV replication” value is listed as “inhibit HIV replication”.
dextran sulfate: in the data set on HIV [1], the “inhibition of HIV replication” value is “inhibit HIV replication” and the “inhibition of HIV in vitro” value was “potent inhibitors”. Moreover, in the data set with CMV, the “inhibition of cytomegaloviruses in vitro” value was “potent inhibitors”. Moreover, the “inhibition of herpes simplex viruses in vitro” value with HSV was “potent inhibitors”. The “inhibition of paramyxoviruses in vitro” value in the data set on paramyxoviruses is reported as “potent inhibitors”. In the data set on influenza viruses, the “inhibition of influenza viruses in vitro” value was “potent inhibitors”. Further, the “inhibition of semlikiviruses in vitro” value with semlikiviruses is reported as “potent inhibitors”. Moreover, the “toxicity of continuous intravenous infusion” value (continuous infusion to maximally tolerated dose, subjects with symptomatic HIV infection, up to 14 days) is recorded as “toxic”. Further, the “toxicity in mammals and HIV patients” value (mammals and HIV patients) is reported as “significant toxicity”. For the same molecule, the “activity against HIV in vivo” value in the data set with HIV [2] (commercial dextran sulfate) is listed as “poor activity”. Besides, in the data set on HIV [2] (continuous infusion, subjects with symptomatic HIV infection, up to 14 days), the “beneficial effect in vivo” value is on record as “lack of any demonstration of beneficial effect in vivo”.
As to Galactan sulfate, the In vitro activity entry was “HIV” in the data set on HIV [1] and “HSV-1” with HSV-1.
Take Curdlan sulfate: the In vitro activity result in the data set on HIV [1] is recorded as “HIV”; in the data set with CMV, “CMV”.
On to `CCCCCCCCCCCCOS(=O)(=O)[O-].[Na+]` [Sodium lauryl sulfate], for which the In vitro activity result in the data set on HIV [1] was “HIV”; in the data set with HSV it was “HSV”.
Consider Glycyrrhizin sulfate, for which the In vitro activity result in the data set on HIV [1] was “HIV”.
For Carboxymethylchitin, the In vitro activity result in the data set with HSV was “HSV”.
For the molecule Heparin, the “inhibition of HIV replication” value in the data set with HIV [1] is recorded as “inhibit HIV replication”. The In vitro activity entry in the data set with HIV [1] is listed as “HIV”; in the data set on HHV-7, “HHV-7”; in the data set on ASFV, “ASFV, Denge”; in the data set with Denge virus it was “ASFV, Denge”; with MLV, “virus, MLV”. In the data set on HIV [1], the “inhibition of HIV in vitro” value is on record as “potent inhibitors”. Also, the “inhibition of cytomegaloviruses in vitro” value in the data set with CMV is listed as “potent inhibitors”. In the data set with HSV, the “inhibition of herpes simplex viruses in vitro” value is “potent inhibitors”. For the same molecule, the “inhibition of paramyxoviruses in vitro” value in the data set on paramyxoviruses is “potent inhibitors”. Besides, the “inhibition of influenza viruses in vitro” value with influenza viruses is “potent inhibitors”. The “inhibition of semlikiviruses in vitro” value in the data set with semlikiviruses is recorded as “potent inhibitors”.
Sulfoevernan: in the data set on HIV [1], the “inhibition of HIV replication” value is given as “inhibit HIV replication” and the In vitro activity entry is given as “HIV”.
For the molecule iota-carrageenan, the “inhibition of HIV replication” value in the data set on HIV [1] is “inhibit HIV replication”.
In the case of `O=S(=O)(O)OC1C(OS(=O)(=O)O)C(OS(=O)(=O)O)C(OS(=O)(=O)O)C(OS(=O)(=O)O)C1OS(=O)(=O)O` (stereo not drawn) [Inositol hexasulfate], the In vitro activity entry in the data set with HIV [1] is recorded as “HIV”.
On to N-carboxymethylchitosan-N,O-sulfate, for which the results for the In vitro activity result with HIV [1] and in the data set with RLV were “HIV” and “RLV”, respectively.
For the molecule Sulfated octadecyl ribofurnans, in the data set on HIV [1], the In vitro activity result is “HIV”.
Consider “(14)-2-deoxy-2-sulfamido-3-O-sulfo-(14)-beta-D-glycopyranan”, for which the In vitro activity result in the data set on HIV [1] is on record as “HIV”.
Sulfated xylogalactans: the In vitro activity entry in the data set with HIV-1 is on record as “HIV-1”.
Consider Ribofuranan sulfate, for which the In vitro activity entry with HIV [1] is “HIV”.
For Xylomannan sulfate, the results for the In vitro activity entry in the data set with HIV [1], with HSV-1 and with HSV-2 were “HIV”, “HSV-1” and “HSV-2”, respectively.
Take Polyacetal polysulfate: the In vitro activity result in the data set on HIV [1] is on record as “HIV”.
Consider kappa-carrageenan, for which, in the data set on HIV [1], the “inhibition of HIV replication” value is given as “inhibit HIV replication”.
In the case of Sulfated N-deacetylatedchitin, in the data set on HSV, the In vitro activity result is on record as “HSV”.
Consider Sulfated octadecyl maltohexaoside, for which the In vitro activity result with HIV [1] is given as “HIV”.
Regarding Chondroitin polysulfate, the In vitro activity entry in the data set with HIV [1] was “HIV”.
Rhamnan sulfate: the In vitro activity entry in the data set on HIV [1] is listed as “HIV”; in the data set on HSV-1, “HSV-1”; with CMV it was “CMV”.
For the molecule Mannan sulfate, in the data set on HIV [1], the “inhibition of HIV replication” value is listed as “inhibit HIV replication” and the In vitro activity entry was “HIV”.
With `N[C@H]1C(O)O[C@H](COS(=O)(=O)O)[C@@H](O)[C@@H]1O` (stereo partly drawn) [Glucosamine-6-sulfate (monosaccharide), Glucosamine-6-sulfate], the In vitro activity entry in the data set with HIV [1] is given as “HIV”.
On to Polyinosinic-polycytidylic acid, for which the In vitro activity entry in the data set on HIV [1] is reported as “HIV”.

B1: Cyanovirin-N (from cyanobacterium): Cyanovirin-N from cyanobacterium (protein, UniProt P81180 1-101, looked up)
Cyanovirin-N: LGKFSQTCYNSAIQGSVLTSTCERTNGGYNTSSIDLNSVIENVDGSLKWQPSNFIETCRNTQLAGSSELAAECKTRAQQFVSTKINLDDHIANIDGTLKYE
B1: the In vitro activity result with HIV [1] is “HIV”.
